Experimental data taken from patent US20240083846A1, “SMAC MIMETICS FOR TREATMENT OF CANCER, PROCESS FOR PREPARATION AND PHARMACEUTICAL COMPOSITION THEREOF” (COUNCIL OF SCIENTIFIC & INDUSTRIAL RESEARCH, priority 2020, published 2024).

Tests used:
XIAP BIR2 protein = XIAP BIR2 protein (Homo sapiens, UniProt P98170); assay: Fluorescence polarization competition binding assay, XIAP BIR2; settings: displacement of AVPIAQK(FAM)-OH, fluorescence polarization; read-out: Target Binding BIR2 Ki
Protocol: (§1) The SMAC mimetics 1-9 were tested for their ability to displace the fluorescent labeled peptide AVPIAQK(FAM)-OH from XIAP BIR2 or XIAP BIR3 protein. The dose dependent binding experiment were then carried out by sequentially increasing the concentration of SMAC mimetic compounds at constant concentration of fluorescent labeled peptide and XIAP BIR2 or XIAP BIR3 protein. IC5- values were determined from the plot draw by prism software using nonlinear least-squares analysis. The Ki values of the SMAC mimetics were calculated which was based upon the measured IC50 values, the Kd value between tracer AVPIAQK(FAM)-OH and XIAP BIR2 or XIAP BIR3 complex, and the concentrations of the protein and tracer in the competition assay by using the web based program which are freely accessed at http://sw16.im.med.umich.edu/software/calc_ki/.In-silico.
(§2) Binding isotherms were plotted between FP reading versus log values of protein concentration in nM. The data was analysed using GraphPad prism and Kd values were determined using Boltzmann-sigmoidal non-linear regression curve fitting.

XIAP BIR3 protein = XIAP BIR3 protein (Homo sapiens, UniProt P98170); assay: Fluorescence polarization competition binding assay, XIAP BIR3; settings: displacement of AVPIAQK(FAM)-OH, fluorescence polarization; read-out: Target Binding BIR3 Ki
Sequence of XIAP BIR3 protein (P98170 241-356 limits assumed): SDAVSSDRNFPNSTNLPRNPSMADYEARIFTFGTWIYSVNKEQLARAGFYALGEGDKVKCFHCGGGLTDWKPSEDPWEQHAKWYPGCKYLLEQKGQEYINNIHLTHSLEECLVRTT
Protocol: as §1, §2

CT26 cells = assay: SRB cytotoxicity assay, CT26; type: cell-based; settings: Colon (Mouse)
Protocol: (§3) In vitro cytotoxic activities of different compounds were assessed by using standard SRB assay in different cells. The absorbance of the treated and untreated cells was measured on a multi-well scanning spectrophotometer (Epoch Microplate Reader, Biotek, USA) at a wavelength of 510 nm. Percent growth inhibition was calculated by using the formula […].
(§4) SMAC mimetics promotes tumor cell selective cytotoxic effects. SW 620, HT 29, HCT 116 and VERO cells were treated with series of Smac mimetics at 10 μM dose for 48 hours and cytotoxicity was measured by SRB assay. As C6 had shown robust in-vitro cytotoxic effect against tumor cells but not to VERO cells, we determined IC50 value of C6 against different types of cancer cell lines. ICso values are represented in Table 2.

MDAMB231 cells = assay: SRB cytotoxicity assay, MDAMB231; type: cell-based; settings: Homo sapiens, MDA-MB-231, Breast
Protocol: as §3, §4

4T1 cells = assay: SRB cytotoxicity assay, 4T1; type: cell-based; settings: Breast (Mouse)
Protocol: as §3, §4

A-549 cells = assay: SRB cytotoxicity assay, A-549; type: cell-based; settings: Homo sapiens, A549, Lung
Protocol: as §3, §4

A172 cells = assay: SRB cytotoxicity assay, A172; type: cell-based; settings: Homo sapiens, A 172, Brain
Protocol: as §3, §4

PANC-1 cells = assay: SRB cytotoxicity assay, PANC-1; type: cell-based; settings: Homo sapiens, Pancreas
Protocol: as §3, §4

U937 cells = assay: SRB cytotoxicity assay, U937; type: cell-based; settings: Homo sapiens, U-937, Lymphoma
Protocol: as §3, §4

HCT-116 xenograft = HCT-116 xenograft model; type: in vivo, nude Crl: CD1-Foxnlnu mice; settings: vs control
Excerpt: All the animals were maintained in a pathogen-free facility under a day—night cycle.

[1] = xenograft studies, FIG. 7 and FIG. 8
Protocol: Mice were randomly assigned to groups by a blinded independent investigator. Throughout the study, the tumor was measured with an electronic digital caliper at a regular interval, and the tumor volume was calculated using standard formula V=Π/6×a2×b, where ‘a’ is the short and ‘b’ is the long tumor axis. At the end of the experiment, mice were sacrificed, and subcutaneous tumors were dissected for further studies. Parts of harvested tumors were minced into small pieces with sterile forceps and scissors and homogenized for lysate preparation.

[2] = Organ distribution analysis; type: in vivo, mice; settings: FIG. 9 right panel
Annexin-V positive cells = assay: Annexin-V apoptosis analysis; type: cell-based; settings: FIG. 2, left
PARP, Caspase-3, cIAP-1 = assay: Apoptosis antibody array / apoptotic markers; type: cell-based; settings: treated cells vs control, FIG. 2 right and FIG. 3
Protocol: Apoptosis array was performed by using Proteome Profiler Human Apoptosis Array Kit (ARY009) from R&D Systems following the manufacturer's instructions. The detailed assay procedure was followed. The images were captured by the gel documentation system (Bio-Rad chemidoc XRS plus), while ImageJ software (NIH) was used for analysis and quantification. Plotly software was used for heatmap generation (Montreal, Canada).

cancer cells = assay: Colony formation assay; type: cell-based; settings: FIG. 5
Protocol: The clonogenic colony formation assay was done on single-cell suspension. Briefly, cells were plated in complete McCoy's medium into 12-well plates and 24 hours later, were treated with different agents at different doses either alone or in combination. The cells were cultured for two weeks with renewing the media every 3rd day. The plates were washed with PBS and fixed with ice-cold methanol followed by staining with 0.5% crystal violet in methanol for 30 min. Excess stain was removed by washing with water thoroughly and plates were allowed to dry. Representative images were captured in the gel documentation system (Bio-Rad chemidoc XRS plus) while ImageJ software (NIH) was used for analysis and quantification to monitor single cell colony formation efficiency under the different treatment combinations.

in vivo = settings: mouse
Protocol: (§5) SIF, SGF and other stability studies were performed by following standard protocol. […] Mice were administered their respective doses according to body weight by intravenous (lateral vein), Subcutaneous route and Oral respectively. Blood samples were collected at 0.083, 0.25, 0.5, 0.75, 1, 2, 4, 8, 12, 24 and 48 hours. Plasma was separated and processed for analysis. For pharmacokinetic analysis, plasma concentration versus time data were plotted and analyzed by non-compartmental analysis method using WinNonlin (Pharsight, Mountain View, CA) software.

[3] = Pharmacokinetics of C6 in mice (IV, SC, oral)
Protocol: as §5

Sequence of XIAP BIR2 protein (P98170 124-240 limits assumed): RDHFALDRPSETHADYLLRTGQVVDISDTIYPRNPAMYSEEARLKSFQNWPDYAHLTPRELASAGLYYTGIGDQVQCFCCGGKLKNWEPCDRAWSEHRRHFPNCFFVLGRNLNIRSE

Work on `CC[C@H](C)[C@H](NC(=O)[C@@H]1CC[C@H](c2ccc(C)o2)N1C(=O)[C@@H](NC(=O)[C@H](C)NC)C(C)C)C(=O)NC(c1ccccc1)c1ccccc1` [Compound 6, (2S,5R)-N-((2S,3S)-1-(benzhydrylamino)-3-methyl-1-oxopentan-2-yl)-1-((S)-3-methyl-2-((S)-2-(methylamino)propanamido)butanoyl)-5-(5-methylfuran-2-yl)pyrrolidine-2-carboxamide] yielded a Ki (XIAP BIR2 protein) of 3.21 µM, a Ki (XIAP BIR3 protein) of 580 nM and an IC50 (CT26 cells) greater than 10 µM. The IC50 (MDAMB231 cells) was 4.15 µM, the IC50 (4T1 cells) was 4.17 µM and the IC50 (A-549 cells) was greater than 10 µM. For the same compound, the IC50 (A172 cells) was 6.88 µM, the IC50 (PANC-1 cells) was 5.83 µM and the IC50 (U937 cells) was 8.98 µM. The Xenograft tumor volume (HCT-116 xenograft; oral administration) was “markedly reduced”, the Xenograft tumor weight (HCT-116 xenograft; oral administration) was “markedly reduced” and the Xenograft tumor volume (HCT-116 xenograft; subcutaneous administration) was “markedly reduced”. The Xenograft tumor weight (HCT-116 xenograft; subcutaneous administration) was “markedly reduced”, the “Body weight / tolerability during course of treatment” value [1] was “no weight loss was observed” and the “Presence in tumor tissues” value [2] was “presence of C6 in tumor tissues in significant quantity”. The “Apoptosis (Annexin-V positive cells)” value (Annexin-V positive cells) was “promotes smac driven apoptotic features”, the “Hallmark apoptotic features (PARP, Caspase-3, cIAP-1)” value (PARP, Caspase-3, cIAP-1) was “cleavage of PARP and Caspase-3 and degradation of cIAP-1” and the “Colony formation in XIAP overexpressed and DR5 knock down cells” value (cancer cells; XIAP overexpressed and DR5 knock down cells) was “significant resistant of C6 mediated apoptotic cell death”. The “Colony formation: effect of Pan caspase inhibitor Z-VAD-FMK on C6 cytotoxic phenotype” value (cancer cells; with Z-VAD-FMK) was “markedly rescues cytotoxic phenotype of C6”, the half-life (in vivo; iv, 4 mg/kg) was 11.4 ± 3 min and the half-life (in vivo; po, 30 mg/kg) was 230 ± 108 min. It also gave a half-life (in vivo; sc, 30 mg/kg) of 126 ± 9 min, a C1 ([3]; mice, IV route, 4 mg/kg) of 1.02 ± 0.24 L/h/kg and a C1 ([3]; mice, Oral route, 30 mg/kg) of 1.79 ± 0.32 L/h/kg. The Vd ([3]; mice, Oral route, 30 mg/kg) was 9.52 ± 3.75 L/kg, the C1 ([3]; mice, SC route, 30 mg/kg) was 1.75 ± 0.24 L/h/kg and the Vd ([3]; mice, SC route, 30 mg/kg) was 5.32 ± 0.98 L/kg. For the same compound, the AUC(0-inf) ([3]; mouse, plasma, iv, 4 mg/kg) was 4110 ± 852 ng·h/mL, the Cmax ([3]; mouse, plasma, iv, 4 mg/kg) was 10200 ± 2630 ng/mL and the MRT ([3]; mouse, plasma, iv, 4 mg/kg) was 1.72 ± 0.46 h. The Tmax ([3]; mouse, plasma, iv, 4 mg/kg) was 4.8 min, the Vd ([3]; mouse, plasma, iv, 4 mg/kg) was 0.28 ± 0.12 L/kg and the bioavailability ([3]; mouse, plasma, oral, 30 mg/kg) was 55.9 ± 11.2%. For the same compound, the AUC(0-inf) ([3]; mouse, plasma, po, 30 mg/kg) was 17200 ± 3430 ng·h/mL, the Cmax ([3]; mouse, plasma, po, 30 mg/kg) was 4490 ± 1510 ng/mL and the MRT ([3]; mouse, plasma, po, 30 mg/kg) was 4.18 ± 1.81 h. The Tmax ([3]; mouse, plasma, po, 30 mg/kg) was 64.8 ± 28.2 min, the AUC(0-inf) ([3]; mouse, plasma, sc, 30 mg/kg) was 17400 ± 2220 ng·h/mL and the Cmax ([3]; mouse, plasma, sc, 30 mg/kg) was 5020 ± 854 ng/mL. For the same compound, the MRT ([3]; mouse, plasma, sc, 30 mg/kg) was 8.92 ± 1.35 h, the Tmax ([3]; mouse, plasma, sc, 30 mg/kg) was 52.8 ± 12.6 min and the bioavailability ([3]; mouse, plasma, subcutaneous, 30 mg/kg) was 56.6 ± 7.21%.
